# Source: patent US20090075983A1 (priority 2006, published 2009)
# Experiments:
# [1] = target: T1, α7-subtype of nicotinic receptors (Rattus norvegicus, UniProt Q05941); test: biochemical; conditions: read-out: Inhibition of 3H-α-Bungarotoxine Binding IC50
# T1 construct: Cerebral cortices from male Wistar rats (150-250 g) are homogenised; from tissue; host or cells: rat cerebral cortex membrane homogenate
# T1 sequence (Q05941 23-502): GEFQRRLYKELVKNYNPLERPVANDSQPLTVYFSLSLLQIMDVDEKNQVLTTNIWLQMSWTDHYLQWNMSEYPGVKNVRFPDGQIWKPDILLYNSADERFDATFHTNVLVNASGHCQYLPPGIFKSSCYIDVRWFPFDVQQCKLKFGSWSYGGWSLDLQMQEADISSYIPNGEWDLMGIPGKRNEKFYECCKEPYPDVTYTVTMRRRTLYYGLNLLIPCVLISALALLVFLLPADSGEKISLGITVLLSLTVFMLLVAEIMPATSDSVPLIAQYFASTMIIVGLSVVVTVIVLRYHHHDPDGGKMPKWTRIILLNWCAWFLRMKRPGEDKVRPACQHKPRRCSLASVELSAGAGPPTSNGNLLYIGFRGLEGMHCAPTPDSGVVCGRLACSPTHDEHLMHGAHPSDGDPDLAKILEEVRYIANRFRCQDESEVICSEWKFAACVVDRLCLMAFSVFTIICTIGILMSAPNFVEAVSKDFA
Structure (SMILES),IC50 [1] [µM],melting point [°C]
"O=C(O)/C=C/C(=O)O.O=C(Oc1ccc(C#Cc2ccccc2)cc1)N1CCN2CCC1CC2 [Compound A1, 1,4-Diaza-bicyclo[3.2.2]nonane-4-carboxylic acid 4-phenylethynyl-phenyl ester fumaric acid salt]",0.42,160 to 177
"Cl.O=C(Nc1ccc(OC(=O)N2CCN3CCC2CC3)cc1)c1ccccc1 [Compound C1, 1,4-Diaza-bicyclo[3.2.2]nonane-4-carboxylic acid 4-benzoylamino-phenyl ester hydrochloric acid salt]",0.56,> 270
